{
  "source": "paper PMC8049364",
  "about": "“Quantification of Macrophage-Driven Inflammation During Myocardial Infarction with ^18F-LW223, a Novel TSPO Radiotracer with Binding Independent of the rs6971 Human Polymorphism” (Journal of Nuclear Medicine, 2021)",
  "key": {"[1]": {"experiment": "Plasma free fraction by ultrafiltration", "assay_type": "in vitro ADME", "settings": "Sprague-Dawley, rat, mean ± SEM, n = 5, read-out: parent free fraction in plasma", "protocol": "kept on ice until analyzed. Radioactivity in whole blood and plasma, as well as homogenized tissue samples, was assessed using a well-type γ-counter using a 400– 1400 keV window (Perkin Elmer Wizzard2, USA). Plasma samples (400 μl) and tissue samples (500 μl) were processed by acetonitrile denaturation (1:1.4 v/v) and analyzed by HPLC (Ultimate2000, ThermoFisher, UK) on a Luna C18(2) 10×250 mm, 10 μm column (Phenomenex, UK) with acetonitrile/water 70/30 and flow rate of 4 mL/min to estimate the parent fraction. The plasma fp was determined using ultrafiltration units (Centrifree® 30K, […]\nSimulation of Changes in 18F-LW223 BPND for varying blood flow scenarios Simulation work was carried out using a Matlab (MathWorks, USA) 2-tissue compartment code with Ordinary Differential Equation (ODE) solvers. Six different levels of K1 values (0.9, 0.7, 0.5, 0.3, 0.1 and 0.01 mL/min/cc) were tested with fixed k2 and vB=0.05. The following BPND values were simulated: 4, 10, 16 and 20; with k3 modified and k4 fixed. All micro parameters used in the simulations are shown in Supplementa l Table 5. The input function used was an average of the blood curve s taken from healthy animals using the SwissTrace blood sampler (Supplemental Data File 1). The plasma to whole blood ratio used was 1.84 and the AIF was metabolite corrected using a population based curve as in the experimental data. […]"}, "[2]": {"experiment": "Dosimetry from whole-body PET in mice (OLINDA/EXM, estimated for humans)", "assay_type": "in vivo", "protocol": "Thirty-two PET scans were performed with ^18F-LW223 (17.8 ± 1.5 MBq, intravenous bolus, mean ± SEM). Naïve and MI rat scans were acquired immediately after intravenous bolus injection of ^18F-LW223. […] Dosimetry studies were conducted using mice and 240-min PET scans.\nThe following organs were identified as source organs: brain, heart, lung, gallbladder, liver, gut, adrenals, kidneys, and bladder. A whole-body VOI was drawn around the animal body and was used to quantify whole-body remainder activity as whole-body activity minus source-organ activity. At each time point, the measured activity of the source organs was expressed as the percentage injected dose. The residence time (τ), defined as the ratio of accumulated activity in the target organ (Ā) and injected activity (A0) (i.e., τ = Ā/A0 ([20])), was calculated as previously described ([21]). Calculated τ was normalized on the basis of the factors shown in Supplemental Table 3 ([22]–[26]) and entered into OLINDA/EXM software, version 1.0, to estimate organ doses and effective doses.\nOrgan Mouse Human Correction Factor\n% Total body weight % Total body weight\nSupplemental Table 3. Scaling factors for different organs in mice and humans based on their percentage contribution to total body weight. Data presented in this table was calculated based on previously published data."}},
  "data": [
    {"molecule": "CC[C@@H](C)N(C)C(=O)c1nc2ccccc2c(-c2ccccc2)c1C[18F]", "note": "[^18F-LW223]", "values": [
      {"measurement": "fraction unbound", "setting": "[1]", "value": 0.385},
      {"measurement": "Effective dose", "setting": "[2]; Female (n = 5)", "value": 0.02, "unit": "mSv/MBq"},
      {"measurement": "Estimated absorbed dose, Adrenals", "setting": "[2]; Female (n = 5)", "value": "3.67 ×10^−2 mGy/MBq"},
      {"measurement": "Estimated absorbed dose, Brain", "setting": "[2]; Female (n = 5)", "value": "0.56 ×10^−2 mGy/MBq"},
      {"measurement": "Estimated absorbed dose, Breasts", "setting": "[2]; Female (n = 5)", "value": "0.86 ×10^−2 mGy/MBq"},
      {"measurement": "Estimated absorbed dose, Gallbladder wall", "setting": "[2]; Female (n = 5)", "value": "2.46 ×10^−2 mGy/MBq"},
      {"measurement": "Estimated absorbed dose, Heart wall", "setting": "[2]; Female (n = 5)", "value": "1.89 ×10^−2 mGy/MBq"},
      {"measurement": "Estimated absorbed dose, Kidneys", "setting": "[2]; Female (n = 5)", "value": "1.54 ×10^−2 mGy/MBq"},
      {"measurement": "Estimated absorbed dose, Liver", "setting": "[2]; Female (n = 5)", "value": "1.95 ×10^−2 mGy/MBq"},
      {"measurement": "Estimated absorbed dose, Lower large intestine wall", "setting": "[2]; Female (n = 5)", "value": "9.26 ×10^−2 mGy/MBq"},
      {"measurement": "Estimated absorbed dose, Lung", "setting": "[2]; Female (n = 5)", "value": "3.31 ×10^−2 mGy/MBq"},
      {"measurement": "Estimated absorbed dose, Muscle", "setting": "[2]; Female (n = 5)", "value": "0.98 ×10^−2 mGy/MBq"},
      {"measurement": "Estimated absorbed dose, Osteogenic cells", "setting": "[2]; Female (n = 5)", "value": "1.52 ×10^−2 mGy/MBq"},
      {"measurement": "Estimated absorbed dose, Ovaries", "setting": "[2]; Female (n = 5)", "value": "1.66 ×10^−2 mGy/MBq"},
      {"measurement": "Estimated absorbed dose, Pancreas", "setting": "[2]; Female (n = 5)", "value": "1.26 ×10^−2 mGy/MBq"},
      {"measurement": "Estimated absorbed dose, Red marrow", "setting": "[2]; Female (n = 5)", "value": "0.98 ×10^−2 mGy/MBq"},
      {"measurement": "Estimated absorbed dose, Skin", "setting": "[2]; Female (n = 5)", "value": "0.74 ×10^−2 mGy/MBq"},
      {"measurement": "Estimated absorbed dose, Small intestine", "setting": "[2]; Female (n = 5)", "value": "1.30 ×10^−2 mGy/MBq"},
      {"measurement": "Estimated absorbed dose, Spleen", "setting": "[2]; Female (n = 5)", "value": "1.11 ×10^−2 mGy/MBq"},
      {"measurement": "Estimated absorbed dose, Stomach wall", "setting": "[2]; Female (n = 5)", "value": "1.15 ×10^−2 mGy/MBq"},
      {"measurement": "Estimated absorbed dose, Thymus", "setting": "[2]; Female (n = 5)", "value": "1.07 ×10^−2 mGy/MBq"},
      {"measurement": "Estimated absorbed dose, Thyroid", "setting": "[2]; Female (n = 5)", "value": "0.89 ×10^−2 mGy/MBq"},
      {"measurement": "Estimated absorbed dose, Total body", "setting": "[2]; Female (n = 5)", "value": "1.07 ×10^−2 mGy/MBq"},
      {"measurement": "Estimated absorbed dose, Upper large intestine wall", "setting": "[2]; Female (n = 5)", "value": "1.24 ×10^−2 mGy/MBq"},
      {"measurement": "Estimated absorbed dose, Urinary bladder wall", "setting": "[2]; Female (n = 5)", "value": "1.48 ×10^−2 mGy/MBq"},
      {"measurement": "Estimated absorbed dose, Uterus", "setting": "[2]; Female (n = 5)", "value": "1.29 ×10^−2 mGy/MBq"},
      {"measurement": "Effective dose", "setting": "[2]; Male (n = 8)", "value": 0.02, "unit": "mSv/MBq"},
      {"measurement": "Estimated absorbed dose, Adrenals", "setting": "[2]; Male (n = 8)", "value": "2.22 ×10^−2 mGy/MBq"},
      {"measurement": "Estimated absorbed dose, Brain", "setting": "[2]; Male (n = 8)", "value": "0.59 ×10^−2 mGy/MBq"},
      {"measurement": "Estimated absorbed dose, Breasts", "setting": "[2]; Male (n = 8)", "value": "0.72 ×10^−2 mGy/MBq"},
      {"measurement": "Estimated absorbed dose, Gallbladder wall", "setting": "[2]; Male (n = 8)", "value": "2.01 ×10^−2 mGy/MBq"},
      {"measurement": "Estimated absorbed dose, Heart wall", "setting": "[2]; Male (n = 8)", "value": "2.03 ×10^−2 mGy/MBq"},
      {"measurement": "Estimated absorbed dose, Kidneys", "setting": "[2]; Male (n = 8)", "value": "1.57 ×10^−2 mGy/MBq"},
      {"measurement": "Estimated absorbed dose, Liver", "setting": "[2]; Male (n = 8)", "value": "1.30 ×10^−2 mGy/MBq"},
      {"measurement": "Estimated absorbed dose, Lower large intestine wall", "setting": "[2]; Male (n = 8)", "value": "7.82 ×10^−2 mGy/MBq"},
      {"measurement": "Estimated absorbed dose, Lung", "setting": "[2]; Male (n = 8)", "value": "3.10 ×10^−2 mGy/MBq"},
      {"measurement": "Estimated absorbed dose, Muscle", "setting": "[2]; Male (n = 8)", "value": "0.80 ×10^−2 mGy/MBq"},
      {"measurement": "Estimated absorbed dose, Osteogenic cells", "setting": "[2]; Male (n = 8)", "value": "1.20 ×10^−2 mGy/MBq"},
      {"measurement": "Estimated absorbed dose, Pancreas", "setting": "[2]; Male (n = 8)", "value": "1.03 ×10^−2 mGy/MBq"},
      {"measurement": "Estimated absorbed dose, Red marrow", "setting": "[2]; Male (n = 8)", "value": "0.82 ×10^−2 mGy/MBq"},
      {"measurement": "Estimated absorbed dose, Skin", "setting": "[2]; Male (n = 8)", "value": "0.61 ×10^−2 mGy/MBq"},
      {"measurement": "Estimated absorbed dose, Small intestine", "setting": "[2]; Male (n = 8)", "value": "1.11 ×10^−2 mGy/MBq"},
      {"measurement": "Estimated absorbed dose, Spleen", "setting": "[2]; Male (n = 8)", "value": "0.91 ×10^−2 mGy/MBq"},
      {"measurement": "Estimated absorbed dose, Stomach wall", "setting": "[2]; Male (n = 8)", "value": "0.94 ×10^−2 mGy/MBq"},
      {"measurement": "Estimated absorbed dose, Testes", "setting": "[2]; Male (n = 8)", "value": "0.77 ×10^−2 mGy/MBq"},
      {"measurement": "Estimated absorbed dose, Thymus", "setting": "[2]; Male (n = 8)", "value": "0.90 ×10^−2 mGy/MBq"},
      {"measurement": "Estimated absorbed dose, Thyroid", "setting": "[2]; Male (n = 8)", "value": "0.79 ×10^−2 mGy/MBq"},
      {"measurement": "Estimated absorbed dose, Total body", "setting": "[2]; Male (n = 8)", "value": "0.89 ×10^−2 mGy/MBq"},
      {"measurement": "Estimated absorbed dose, Upper large intestine wall", "setting": "[2]; Male (n = 8)", "value": "1.00 ×10^−2 mGy/MBq"},
      {"measurement": "Estimated absorbed dose, Urinary bladder wall", "setting": "[2]; Male (n = 8)", "value": "1.16 ×10^−2 mGy/MBq"},
      {"measurement": "whole-body effective dose", "setting": "[2]; female animals", "value": 24.5, "unit": "μSv/MBq"},
      {"measurement": "whole-body effective dose", "setting": "[2]; male animals", "value": 20.5, "unit": "μSv/MBq"},
      {"measurement": "estimated dosimetry (effective dose)", "setting": "[2]; mouse, in vivo", "value": 0.020, "unit": "mSv/MBq"},
      {"measurement": "critical organ (dosimetry)", "setting": "[2]; naïve mice", "value": "lower large intestine"},
      {"measurement": "Effective dose", "setting": "[2]; range over male and female", "value": "20.5–24.5 μSv/MBq"}
    ]}
  ]
}
